pIC50: −log10 of the molar value. ≈ marks a conversion by molar mass, not a printed value. Calls of active or inactive are those of the source. No cut-off for these calls is given here.
How the values were obtained:
[1] = Inhibition of quorum sensing system in Chromobacterium violaceum ATCC 31532 assessed as reduction in violacein production at <100 uM; details: dose microM <100
[2] = system: Staphylococcus epidermidis; experiment: Inhibition of quorum sensing system in Staphylococcus epidermidis
Pseudomonas aeruginosa [3] = experiment: Antibacterial activity against Pseudomonas aeruginosa assessed as inhibition of cell growth; type: functional
[4] = Inhibition of quorum sensing system lasB in Pseudomonas aeruginosa transfected with lasB-gfp assessed as reduction of GFP production; details: for pIC50: read-out: IC50
[5] = Inhibition of quorum sensing system in Chromobacterium violaceum ATCC 31532 assessed as reduction in violacein production at 100 uM
Pseudomonas aeruginosa [6] = experiment: Antibiofilm activity against Pseudomonas aeruginosa PA14 assessed as inhibition of biofilm formation at 15 to 50 uM measured after 48 hrs relative to control; type: functional; details: dose 15-50 µM
Pseudomonas aeruginosa [7] = experiment: Inhibition of quorum sensing system lasB in Pseudomonas aeruginosa transfected with lasB-gfp assessed as reduction of GFP production at 10 uM
Pseudomonas aeruginosa [8] = experiment: Potency index, ratio of 4NPO IC50 to test compound IC50 for inhibition of quorum sensing system lasB in Pseudomonas aeruginosa transfected with lasB-gfp
Pseudomonas aeruginosa [9] = experiment: Inhibition of quorum sensing system lasB in Pseudomonas aeruginosa transfected with lasB-gfp assessed as reduction of GFP production at 5 uM
Pseudomonas aeruginosa [10] = experiment: Antibiofilm activity against Pseudomonas aeruginosa PA14 assessed as inhibition of biofilm formation at 15 to 50 uM measured after 48 hrs; type: functional, organism-based; details: dose 15-50 µM
Pseudomonas aeruginosa [11] = experiment: Antibiofilm activity against Pseudomonas aeruginosa PA14 assessed as inhibition of biofilm formation at 50 uM measured after 48 hrs relative to control; type: functional
Pseudomonas aeruginosa [12] = experiment: Inhibition of quorum sensing system lasB in Pseudomonas aeruginosa transfected with lasB-gfp assessed as reduction of GFP production at 10 to 15 uM; details: dose 10-15 µM

Compound	inhibition [1]	inhibition [2]	MIC (Pseudomonas aeruginosa [3])	pIC50 [4]	inhibition [5]	inhibition (Pseudomonas aeruginosa [7])	Ratio IC50 (Pseudomonas aeruginosa [8])	IC50 [4]	inhibition (Pseudomonas aeruginosa [9])	inhibition (Pseudomonas aeruginosa [12])	inhibition (INH) (Pseudomonas aeruginosa [6])	inhibition (Pseudomonas aeruginosa [10])	inhibition at 50 µM (Pseudomonas aeruginosa [11])
CCCCN1C[C@H]2N(C(=O)CN(c3ccc(C)cc3)N2C(=O)NCc2ccccc2)[C@@H](C(C)C)C1=O	inactive	inactive	> 150 µM	–	21%	–	–	Not Active	–	–	–	–	–
O=[N+]([O-])c1cc[n+]([O-])cc1	–	–	–	4.57	66%	–	–	–	–	–	–	Active	–
Cc1ccc(N2CC(=O)N3[C@@H](CC(C)C)C(=O)N(Cc4ccco4)C[C@@H]3N2C(=O)NCc2ccccc2)cc1	inactive	inactive	> 150 µM	4.92	52%	–	2	–	–	Active	–	–	80%

The next lines start with results.

inhibition [1]	inhibition [2]	MIC (Pseudomonas aeruginosa [3])	pIC50 [4]	inhibition [5]	inhibition (Pseudomonas aeruginosa [7])	Ratio IC50 (Pseudomonas aeruginosa [8])	IC50 [4]	inhibition (Pseudomonas aeruginosa [9])	inhibition (Pseudomonas aeruginosa [12])	Compound	inhibition (INH) (Pseudomonas aeruginosa [6])	inhibition (Pseudomonas aeruginosa [10])	inhibition at 50 µM (Pseudomonas aeruginosa [11])
inactive	inactive	> 100 µM	5.15	49%	Active	2	–	–	–	C=CCNC(=O)N1[C@H]2CN(Cc3ccccc3)C(=O)[C@H](C(C)CC)N2C(=O)CN1c1ccc(C)cc1 (some centres not stated)	20%	–	–
inactive	inactive	> 100 µM	5.40	62%	–	2	–	Active	–	C=CCNC(=O)N1[C@H]2CN(Cc3ccccc3)C(=O)[C@H](Cc3ccccc3)N2C(=O)CN1c1ccc(C)cc1	80%	–	–
inactive	inactive	100 µM (≈ 57.4 µg/mL)	–	12%	–	–	Not Active	–	–	CCCCN1C[C@H]2N(C(=O)CN(c3ccc(C)cc3)N2C(=O)NCc2ccccc2)[C@@H](Cc2ccc(Cl)cc2)C1=O	–	–	–

Reference: ChEMBL document CHEMBL4811292, “Discovery of novel β-turn mimetic-based peptides as novel quorum sensing inhibitors of gram-negative bacteria” (Bioorg Med Chem Lett, 2021)
